Results: US20050215635A1, “Diarylheptanoid compounds and uses thereof” (priority 2004, published 2005)

Tests used:
[1] = Radical-scavenging activity by DPPH
From the text: In this example, the 2,2-diphenyl-1-picrylhydrazyl (DPPH) method was used to explore the capacity of five isolated compounds of the invention to act as free radical scavengers. The DPPH assay has been extensively used to test the free radical scavenging ability of various chemicals (Brand-williams, W. et al., Wiss. Technol. 1995, 28, 25-30; Dinis, T. C. et al., Arch. Biochem. Biophys. 1994, 315, 161-169.)
This method was adapted from that of Brand-Williams, et al. (Brand-williams, W.; Cuvelier, M. E.; Berset, C. Lebensm. Wiss. Technol. 1995, 28, 25-30.). At least seven different concentrations were prepared for each purified compound. 25 μl pure compound solution and 975 μL DPPH solution (63.4 μM) were mixed together and left in the dark for 30 min. Each sample was triplicated and the values were averaged. The absorbance of the samples was measured at 515 nm against methanol solution without DPPH as the blank reference. The absorbance was measured every 30 min until the reaction reached a plateau. The reaction kinetics were then plotted using the above data and the percentage of DPPH remaining at the steady state was obtained. IC50 values were determined by extrapolation from linear regression analysis.
DPPH, 2,2-Diphenyl-1-picrylhydrazyl (DPPH.), is a stable radical in methanol solution. In its radical form, DPPH. absorbs at 515 nm, but the absorption ceases upon reduction by an antioxidant (AH) or a radical species (R.) (Brand-williams, W.; Cuvelier, M. E.; Berset, C. Lebensm. Wiss. Technol. 1995, 28, 25-30.). The concentration of tested chemicals needed to decrease the initial DPPH. concentration by 50% (IC50) is a parameter widely used to measure the antioxidant potential (Kanner, J.; Frankel, E.; German, B.; Kinsella, J. e. J. Agric. Food Chem. 1994, 42, 64-69, Vinson, J. A.; Dabbagh, Y. A.; Serry, M. M. J. Agric. Food Chem. 1995a, 43,2800-2802.). The lower the IC50, the higher the free radical scavenging power.

[2] = system: IL-1β production from human PBMCs; experiment: IL-1β ELISA in supernatants of LPS-treated human PBMCs; type: cell-based; details: 18 hrs
Experimental: The PBMCs were separated from peripheral blood of normal healthy human volunteers. […] Supernatant was harvested after 18 hrs and stored at −70° C. until tested. The quantity of IL-1β and TNF-α present in supernatants was estimated by ELISA (R&D systems, MN, USA) following manufacturer's instruction. A standard curve was obtained by plotting known concentrations of recombinant human IL-1β and TNF-α vs absorbance at 450 nm.
Each data point represents mean+standard deviation (SD) of 3 replicates.

[3] = system: NF-κB DNA binding activity; experiment: Electrophoresis mobility shift assay (EMSA) of NF-κB DNA binding in RAW 264.7 nuclear extracts; type: cell-based, mouse; details: RAW 264.7, 2 hrs
Experimental: FIG. 6A and 6B. Inhibition of LPS induced NF-κB activation by HMP. 6A: Nuclear protein lysates of RAW 264.7 cells were prepared after 2 hrs of treatment with LPS (0.5 μg/ml) either alone or with different concentration of HMP. Six μg of nuclear protein was used in DNA binding assay and the total binding reaction was resolved in 5% nondenaturing polyacrylamide gel. The retarded bands are indicated with arrow. Data represent one of three experiments performed separately with similar results. Lane 1, control; 2, LPS (0.5 μg/ml); 3, LPS+HMP (25 μM); 4, HMP (12.5 μM). NS, non specific. 6B: Plot of integrated signal density for each lane in FIG. 6A.
RAW 264.7 cells were treated with either LPS (0.5 μg/ml) alone or with various concentration of HMP for 2 hrs. Thereafter, nuclear extracts were prepared using a modified method (Lahti et al., 2000 294:1188-1194). Briefly, cells were washed once with PBS (pH 7.2) and were suspended in hypotonic buffer A [10 mM HEPES (pH 7.6), 10 mM KCl, 0.1 mM EDTA, 1 mM DTT, 0.5 mM PMSF] for 10 min on ice, and vortexed for 10 sec. Nuclei were pelleted by centrifugation at 12,000 g for 5 minutes. […] Mobility shift of DNA due to binding of NF-κB complex was detected by Phosphor Imager-445 SI (Molecular Dynamics, Amarsham-Pharmacia, NJ, USA).

Which results are given for COc1cc(CC/C=C/C(=O)CCc2ccccc2)ccc1O [AO-4, 7-(4″-hydroxy-3″-methoxyphenyl)-1-phenyl-hept-4-en-3-one]?
IC50 ([1]; DPPH 63.4 μM in methanol, absorbance at 515 nm, steady state, read-out: IC50 (μM) of Diarylheptanoids in Scavenging DPPH Free Radicals): 13.7 µM; free radical scavenging, DPPH data (in words) ([1]; DPPH assay): very good free radical scavengers; IL-1β ([2]; HMP 6.25 μM + LPS (10 ng/ml)): 339.21 ± 10.53 pg/mL; IL-1β ([2]; HMP 6.25 μM alone): 22.12 ± 3.33 pg/mL; IL-1β ([2]; HMP 12.5 μM + LPS (10 ng/ml)): 113.43 ± 3.81 pg/mL; IL-1β ([2]; HMP 12.5 μM alone): 24.45 ± 1.03 pg/mL; IL-1β ([2]; HMP 25 μM + LPS (10 ng/ml)): 77.27 ± 4.6 pg/mL; IL-1β ([2]; HMP 25 μM alone): 23.28 ± 1.41 pg/mL; LPS induced secretion of IL-1β (in words) ([2]; HMP 6.25-25 μM + LPS): significantly in dose dependent fashion; LPS induced NF-κB DNA binding activity (EMSA, in words) ([3]; HMP 25 μM + LPS (0.5 μg/ml)): marked inhibition; relative levels of NF-κB DNA binding activity (EMSA, in words) ([3]; HMP 12.5 and 25 μM + LPS (0.5 μg/ml)): less in comparison to LPS alone
